Measured values from ChEMBL document CHEMBL5729293, “Inhibitors of KEAP1-Nrf2 protein-protein interaction” (2022).

Assay: Fluorescence Based Assay: The details of the KEAP1 KELCH ThermoFluor® Assay Construct are as follows: Kelch domain of human KEAP 1 (321-624 aa) was used in the assay. The protein was expressed in E. coli with 6His tag that was cleaved prior to receipt for use.ThermoFluor® experiments were carried out using instruments owned by Janssen Research and Discovery, L.L.C. through its acquisition of 3-Dimensional Pharmaceuticals, Inc. 1,8-ANS (Invitrogen) was used as a fluorescent dye. Protein (KEAP Kelch) and compound solutions were dispensed into black 384-well polypropylene PCR microplates (Abgene) and overlayed with silicone oil (1 μL, Fluka, type DC 200) to prevent evaporation.Reference wells contained KEAP Kelch without compounds, and the assay conditions were as follows: 1.1 μM (0.037mg/mL) KEAP Kelch, 80 μM 1,8-ANS, 25 mM PIPES, pH 7.0, 100 mM NaCl, 0.002% Tween-20.

Row | SMILES | Kd [nM]
1 | Cc1ccc(C(CC(=O)O)c2ccn3c(C(F)(F)F)nnc3c2C)nc1CN1CC2CCCCN2c2ncc(C#N)cc2S1(=O)=O (stereo unspecified) | < 1
2 | Cc1ccc([C@H](c2ccn3c(C(F)(F)F)nnc3c2C)[C@H](C)C(=O)O)cc1CN1CC2(CC2)Oc2ncccc2S1(=O)=O | < 1
3 | Cc1ccc([C@@H](c2ccn3c(C(F)F)nnc3c2C)C(C)(C)C(=O)O)nc1CN1CC2(CCOCC2)Oc2nc(OCCN3CCCCC3)c(C)cc2S1(=O)=O | < 1
4 | Cc1ccc(C(CC(=O)O)c2ccn3c(C(F)F)nnc3c2C)cc1CN1CC2(CC2)Oc2ncc(F)cc2S1(=O)=O (stereo unspecified) | < 1
5 | Cc1cnc2c(c1)S(=O)(=O)N(Cc1nc(C(CC(=O)O)c3ccn4c(C(F)(F)F)nnc4c3C)ccc1C)C[C@H]1CCCCN21 (stereo partly specified) | < 1
6 | CCn1nnc2c(C)c(C(CC(=O)O)c3ccc(C)c(CN4C[C@H]5CCCCN5c5ncccc5S4(=O)=O)n3)ccc21 (stereo partly specified) | < 1
7 | Cc1ccc(C(CC(=O)O)c2ccn3c(C(F)(F)F)nnc3c2C)nc1CN1C[C@@H]2CCCCN2c2ncc(F)cc2S1(=O)=O (stereo partly specified) | < 1
8 | Cc1cnc([C@@H](c2ccn3c(C(F)F)nnc3c2C)C(C)(C)C(=O)O)cc1CN1CC2(CCOCC2)Oc2nc(OCCN3CCCCC3)c(C)cc2S1(=O)=O | < 1
9 | CC[C@@H]1CN(Cc2cc(C(CC(=O)O)c3ccn4c(C(F)(F)F)nnc4c3C)ccc2C)S(=O)(=O)c2cccnc2O1 (stereo partly specified) | < 1
10 | Cc1ccc([C@@H](c2ccn3c(C(F)(F)F)nnc3c2C)C(C)(C)C(=O)O)cc1CN1CC2(CCOCC2)Oc2nc(O[C@H](C)CN3CCCCC3)c(C)cc2S1(=O)=O | < 1
11 | Cc1cnc2c(c1)S(=O)(=O)N(Cc1cc([C@H](c3ccn4c(C(F)(F)F)nnc4c3C)C(C)(C)C(=O)O)ccc1C)C[C@@]1(CCOC1)O2 | < 1
12 | Cc1cnc([C@@H](c2ccn3c(C(F)F)nnc3c2C)C(C)(C)C(=O)O)cc1CN1CC2(CCOCC2)Oc2nc(OCCN3CCCC3)c(C)cc2S1(=O)=O | < 1
13 | Cc1ccc([C@H](CC(=O)O)c2ccn3c(C(F)(F)F)nnc3c2C)nc1CN1C[C@@H]2CCCCN2c2ncccc2S1(=O)=O | < 1
14 | Cc1ccc([C@@H](c2ccn3c(C(F)(F)F)nnc3c2C)C(C)(C)C(=O)O)cc1CN1CC2(CCOCC2)Oc2nc(CCC(=O)NC3CCC3)ccc2S1(=O)=O | < 1
15 | Cc1cnc2c(c1)S(=O)(=O)N(Cc1cc([C@@H](c3ccn4c(C(F)(F)F)nnc4c3C)C(C)(C)C(=O)O)ccc1C)C[C@]1(CCOC1)O2 | < 1
16 | Cc1cnc2c(c1)S(=O)(=O)N(Cc1cc([C@@H](c3ccn4c(C(F)F)nnc4c3C)C(C)(C)C(=O)O)ncc1C)CC1(CC1)O2 | < 1
17 | Cc1ncc([C@H](c2ccc3c(nnn3C3CC3)c2C)C(C)(C)C(=O)O)cc1CN1CC2(CCOCC2)Oc2ncccc2S1(=O)=O | < 1
18 | Cc1ccc(C(CC(=O)O)c2ccn3c(C(F)(F)F)nnc3c2C)cc1CN1CC2(COC2)Oc2ncccc2S1(=O)=O (stereo unspecified) | < 1
19 | Cc1ccc([C@H](c2ccn3c(C(F)(F)F)nnc3c2C)C(C)(C)C(=O)O)cc1CN1CC2(CCOCC2)Oc2nc(OCCC3CCNCC3)c(C)cc2S1(=O)=O | < 1
20 | CCn1nnc2c(C)c([C@H](c3ccc(C)c(CN4CC5(CCOCC5)Oc5ncc(C)cc5S4(=O)=O)n3)C(C)(C)C(=O)O)ccc21 | < 1
21 | Cc1ccc(C(CC(=O)O)c2ccc3c(nnn3C3CC3)c2C)cc1CN1C[C@@H]2CCCCN2c2ncccc2S1(=O)=O (stereo partly specified) | < 1
22 | Cc1ccc([C@@H](c2ccn3c(C(F)(F)F)nnc3c2C)C(C)(C)C(=O)O)nc1CN1CC2(CC2)Oc2nc(OCCN3CCCC3)c(C)cc2S1(=O)=O | < 1
23 | Cc1cc2cc([C@H](CC(=O)O)c3ccc(C)c(CN4C[C@H]5CCCCN5c5ncccc5S4(=O)=O)c3)n(C)c2nn1 | < 1
24 | Cc1ccc([C@H](CC(=O)O)c2ccn3c(C4CC4)nnc3c2C)cc1CN1CC2(CC2)Oc2ncc(F)cc2S1(=O)=O | < 1
25 | Cc1ccc([C@@H](c2ccn3c(C(F)(F)F)nnc3c2C)C(C)(C)C(=O)O)nc1CN1CC2(CCOCC2)Oc2ncccc2S1(=O)=O | < 1
26 | Cc1ccc(C(CC(=O)O)c2ccn3c(C(F)F)nnc3c2C)cc1CN1CC2(CCOCC2)Oc2ccc(F)cc2S1(=O)=O (stereo unspecified) | < 1
